# Measurements from US20250353819A1, “ARYL HYDANTOIN COMPOUNDS AND METHODS OF USE” (priority 2022, published 2025).
# Like-named read-outs stand apart in the source and are kept apart here.
# Tests used:
# [1] = Plasma protein binding, rat plasma; assay type: in vitro ADME; settings: read-out: % bound (converted)
# [2] = Stability in human cryopreserved hepatocytes; assay type: in vitro ADME
# [3] = Mouse exposure / pharmacokinetic studies; assay type: in vivo, mice; settings: for half-life / clearance: iv, 1 mg/kg
# [4] = Pharmacokinetics in male Sprague Dawley rats; assay type: in vivo, rat; settings: rats, mean (n = 3); for half-life: read-out: Apparent t1/2 (converted)
# Experimental: IV and oral formulations were prepared using the same method. On the day of dosing the solid compound was dissolved in DMSO prior to addition of a saline solution (0.9% w/v). The samples were then mixed using vortexing producing colourless solutions. The IV formulation was filtered through a 0.22 μm syringe filter prior to dosing and the oral formulation was dosed without filtration.
# Samples of arterial blood were collected up to 168 h post-dose. Urine samples were not collected as animals were housed in bedded cages. Arterial blood was collected directly into borosilicate vials (at 4° C.) containing heparin as anticoagulant. Once collected, blood samples were centrifuged, supernatant plasma was removed and stored frozen (−80° C.) until analysis by LC-MS. A summary of the bioanalytical method and assay validation details is included in Tables 14 and 15.
# Plasma concentration versus time data were analysed using non-compartmental methods (PKSolver Version 2.0). Standard calculations for each pharmacokinetic parameter are listed below.
# CYP 1A2 = CYP 1A2 (Homo sapiens (Human), UniProt P05177); experiment: CYP inhibition in human liver microsomes, 1A2; assay type: in vitro ADME
# Chain of CYP 1A2 (P05177 whole entry): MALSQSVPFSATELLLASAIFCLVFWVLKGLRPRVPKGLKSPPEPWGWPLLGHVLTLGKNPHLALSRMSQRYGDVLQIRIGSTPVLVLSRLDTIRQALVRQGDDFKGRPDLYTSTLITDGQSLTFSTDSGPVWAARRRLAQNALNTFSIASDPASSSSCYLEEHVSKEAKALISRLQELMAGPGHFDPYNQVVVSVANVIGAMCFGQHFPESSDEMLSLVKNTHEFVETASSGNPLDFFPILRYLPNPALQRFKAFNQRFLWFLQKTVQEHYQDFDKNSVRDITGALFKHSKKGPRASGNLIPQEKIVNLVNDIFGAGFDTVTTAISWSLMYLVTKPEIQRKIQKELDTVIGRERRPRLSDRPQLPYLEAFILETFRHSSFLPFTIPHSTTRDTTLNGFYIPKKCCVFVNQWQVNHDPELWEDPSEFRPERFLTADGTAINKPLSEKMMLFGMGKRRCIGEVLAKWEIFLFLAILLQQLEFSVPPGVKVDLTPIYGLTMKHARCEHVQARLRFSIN
# [5] = In vitro metabolic stability, human liver microsomes; assay type: in vitro ADME; settings: human liver microsomes; read-out: h CLint
# Experimental: (§1) In Vitro Metabolic Stability. As described by Charman et al. (2020), metabolic stability assays were performed by incubating test compounds in liver microsomes at 37° C. and 0.4 mg/mL protein concentration. The metabolic reaction was initiated by the addition of an NADPH-regenerating system and quenched at various time points over a 60 min incubation period by the addition of acetonitrile containing diazepam as internal standard. Control samples (containing no NADPH) were included (and quenched at 2, 30 and 60 min) to monitor for potential degradation in the absence of cofactor.
# S. mansoni = experiment: Antischistosomal screen in S. mansoni-infected mice; assay type: in vivo, Schistosoma mansoni; settings: Schistosoma mansoni, single oral dose, mouse model
# Description: Antischistosomal Screen. […] As described by Lombardo et al. (2019), cercariae of S. mansoni were obtained from infected Biomphalaria glabrata. By way of example, NMRI mice were infected subcutaneously with approximately 100 S. mansoni cercariae. […] Untreated mice (n=8) served as controls. At 21 d post-treatment, animals were killed by the CO2 method and dissected. Worms were removed by picking, then sexed and counted.
# [6] = In vitro metabolic stability, mouse liver microsomes; assay type: in vitro ADME; settings: mouse liver microsomes; read-out: m CLint
# Experimental: as §1
# [7] = Stability in rat cryopreserved hepatocytes; assay type: in vitro ADME
# CYP 3A4 = CYP 3A4 (Homo sapiens (Human), UniProt P08684); experiment: CYP inhibition in human liver microsomes, 3A4
# Chain of CYP 3A4 (P08684 whole entry): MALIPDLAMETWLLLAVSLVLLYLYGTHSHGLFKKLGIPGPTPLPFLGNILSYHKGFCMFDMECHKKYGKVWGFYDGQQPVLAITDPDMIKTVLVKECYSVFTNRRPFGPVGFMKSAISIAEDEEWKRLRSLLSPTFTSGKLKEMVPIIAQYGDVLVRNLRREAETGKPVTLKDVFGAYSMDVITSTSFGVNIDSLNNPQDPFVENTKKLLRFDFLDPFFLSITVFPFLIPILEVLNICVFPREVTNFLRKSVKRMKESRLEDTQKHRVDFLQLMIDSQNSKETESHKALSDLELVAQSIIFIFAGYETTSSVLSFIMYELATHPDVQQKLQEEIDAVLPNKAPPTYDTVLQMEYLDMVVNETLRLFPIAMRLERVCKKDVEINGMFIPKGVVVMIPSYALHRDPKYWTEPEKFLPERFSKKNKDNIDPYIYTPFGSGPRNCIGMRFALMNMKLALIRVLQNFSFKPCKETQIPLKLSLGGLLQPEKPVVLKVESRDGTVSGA
# [8] = Partition coefficient (Log D) by gradient HPLC; assay type: physicochemical; settings: pH 7.4, chromatographic estimate; read-out: gLogD7.4
# Description: Partition Coefficient. Partition coefficient values (Log D) of the test compounds were estimated by correlation of their chromatographic retention properties against the characteristics of a series of standard compounds with known partition coefficient values using gradient HPLC (modification of a method reported by Lombardo et al., 2001).
# [9] = Plasma protein binding, dog plasma; assay type: in vitro ADME; settings: read-out: % bound (converted)
# [10] = Stability in mouse cryopreserved hepatocytes; assay type: in vitro ADME
# [11] = mice, oral, mean dose 6.73 mg/kg
# [12] = mice, oral, mean dose 13.5 mg/kg
# [13] = mice, oral, mean dose 26.3 mg/kg
# [14] = mice, oral, mean dose 55.6 mg/kg
# [15] = mice, oral, mean dose 99.7 mg/kg
compound,measurement,setting,value
"[2H]C([2H])([2H])C1(C([2H])([2H])[2H])NC(=O)N(c2ccc(F)c(C(C)(F)F)c2)C1=O [Compound IE, 3-(3-(1,1-difluoroethyl)-4-fluorophenyl)-5,5-bis(methyl-d3)imidazolidine-2,4-dione]",fraction unbound,[1],0.42
same,CLint,[2],<2 μL/min/10^6
same,hepatocyte CLint,[2]; read-out: in vitro CLint,< 2000 µL/min/1e6 cells
same,half-life,"[3]; male, Swiss outbred, mouse, in vivo, IV 1 mg/kg, mice, read-out: apparent half-life (converted)",30 h
same,clearance,"[3]; male, Swiss outbred, mouse, in vivo, IV 1 mg/kg, mice, read-out: blood clearance",0.59 mL/min/kg
same,half-life,"[3]; male, Swiss outbred, mouse, in vivo, mice, IV, mean dose 1.0 mg/kg, read-out: Apparent t1/2 (converted)",38 h
same,clearance,"[3]; male, Swiss outbred, mouse, in vivo, mice, IV, mean dose 1.0 mg/kg, read-out: Plasma CL",0.491 mL/min/kg
same,bioavailability,"[3]; male, Swiss outbred, mouse, in vivo, po, mice, all doses 6.25 to 100 mg/kg, read-out: apparent oral bioavailability",≥ 80%
same,AUC(0-t),"[3]; male, Swiss outbred, mouse, in vivo, 100 mg/kg PO in mice, read-out: AUC0-last",1800 µg·h/mL
same,Cmax,"[3]; male, Swiss outbred, mouse, in vivo, 100 mg/kg PO in mice, read-out: Cmax",41000 ng/mL
same,Vd,"[3]; male, Swiss outbred, mouse, in vivo, IV 1 mg/kg, mice, read-out: volume of distribution",1.59 L/kg
same,AUC(0-t),"[3]; male, Swiss outbred, mouse, in vivo, mice, IV, mean dose 1.0 mg/kg, read-out: Plasma AUC0-48 h",28.2 µg·h/mL
same,AUC(0-inf),"[3]; male, Swiss outbred, mouse, in vivo, mice, IV, mean dose 1.0 mg/kg, read-out: Plasma AUC0-inf",33.9 µg·h/mL
same,Tmax,"[3]; male, Swiss outbred, mouse, in vivo, mice, oral, mean dose 6.73 mg/kg",3 h
same,AUC(0-t),"[3]; male, Swiss outbred, mouse, in vivo, mice, oral, mean dose 6.73 mg/kg, read-out: Plasma AUC0-48 h",145 µg·h/mL
same,Cmax,"[3]; male, Swiss outbred, mouse, in vivo, mice, oral, mean dose 6.73 mg/kg, read-out: Plasma Cmax",3760 ng/mL
same,Tmax,"[3]; male, Swiss outbred, mouse, in vivo, mice, oral, mean dose 13.5 mg/kg",7 h
same,AUC(0-t),"[3]; male, Swiss outbred, mouse, in vivo, mice, oral, mean dose 13.5 mg/kg, read-out: Plasma AUC0-48 h",320 µg·h/mL
same,Cmax,"[3]; male, Swiss outbred, mouse, in vivo, mice, oral, mean dose 13.5 mg/kg, read-out: Plasma Cmax",8590 ng/mL
same,Tmax,"[3]; male, Swiss outbred, mouse, in vivo, mice, oral, mean dose 26.3 mg/kg",7 h
same,AUC(0-t),"[3]; male, Swiss outbred, mouse, in vivo, mice, oral, mean dose 26.3 mg/kg, read-out: Plasma AUC0-48 h",607 µg·h/mL
same,Cmax,"[3]; male, Swiss outbred, mouse, in vivo, mice, oral, mean dose 26.3 mg/kg, read-out: Plasma Cmax",14400 ng/mL
same,Tmax,"[3]; male, Swiss outbred, mouse, in vivo, mice, oral, mean dose 55.6 mg/kg",3 h
same,AUC(0-t),"[3]; male, Swiss outbred, mouse, in vivo, mice, oral, mean dose 55.6 mg/kg, read-out: Plasma AUC0-48 h",1130 µg·h/mL
same,Cmax,"[3]; male, Swiss outbred, mouse, in vivo, mice, oral, mean dose 55.6 mg/kg, read-out: Plasma Cmax",28200 ng/mL
same,Tmax,"[3]; male, Swiss outbred, mouse, in vivo, mice, oral, mean dose 99.7 mg/kg",7 h
same,AUC(0-t),"[3]; male, Swiss outbred, mouse, in vivo, mice, oral, mean dose 99.7 mg/kg, read-out: Plasma AUC0-48 h",1800 µg·h/mL
same,Cmax,"[3]; male, Swiss outbred, mouse, in vivo, mice, oral, mean dose 99.7 mg/kg, read-out: Plasma Cmax",40500 ng/mL
same,PlasmaVSS,"[3]; mice, IV, mean dose 1.0 mg/kg",1.6 L/kg
same,Apparent BA,[3]; [11],76%
same,Plasma AUC0-48 h/Dose,[3]; [11],21.5 (μg*h/mL)/(mg/kg)
same,Plasma Cmax/Dose,[3]; [11],0.559 (μg/mL)/(mg/kg)
same,Apparent BA,[3]; [12],84%
same,Plasma AUC0-48 h/Dose,[3]; [12],23.8 (μg*h/mL)/(mg/kg)
same,Plasma Cmax/Dose,[3]; [12],0.638 (μg/mL)/(mg/kg)
same,Apparent BA,[3]; [13],82%
same,Plasma AUC0-48 h/Dose,[3]; [13],23.1 (μg*h/mL)/(mg/kg)
same,Plasma Cmax/Dose,[3]; [13],0.547 (μg/mL)/(mg/kg)
same,Apparent BA,[3]; [14],72%
same,Plasma AUC0-48 h/Dose,[3]; [14],20.4 (μg*h/mL)/(mg/kg)
same,Plasma Cmax/Dose,[3]; [14],0.507 (μg/mL)/(mg/kg)
same,Apparent BA,[3]; [15],64%
same,Plasma AUC0-48 h/Dose,[3]; [15],18.0 (μg*h/mL)/(mg/kg)
same,Plasma Cmax/Dose,[3]; [15],0.407 (μg/mL)/(mg/kg)
same,AUC,"[4]; male, Sprague Dawley, rat, in vivo, iv, 0.9 mg/kg, IV 0.9 mg/kg, read-out: Plasma AUCIV",31.7 µg·h/mL
same,clearance,"[4]; male, Sprague Dawley, rat, in vivo, iv, 0.9 mg/kg, IV 0.9 mg/kg, read-out: Plasma CL",0.476 mL/min/kg
same,Cmax,"[4]; male, Sprague Dawley, rat, in vivo, po, 0.9 mg/kg, PO 0.9 mg/kg, read-out: Plasma Cmax",440 ng/mL
same,Tmax,"[4]; male, Sprague Dawley, rat, in vivo, po, 0.9 mg/kg, PO 0.9 mg/kg, read-out: Tmax",11 h
same,half-life,"[4]; male, Sprague Dawley, rat, in vivo, IV 0.9 mg/kg",32 ± 2 h
same,half-life,"[4]; male, Sprague Dawley, rat, in vivo, PO 0.9 mg/kg",39 h
same,Apparent t1/2,[4]; IV 0.9 mg/kg,32 h
same,PlasmaVSS,[4]; IV 0.9 mg/kg,1.69 L/kg
same,BA,[4]; PO 0.9 mg/kg,113%
same,Plasma AUCoral,[4]; PO 0.9 mg/kg,36.0 H*ug/mL
same,IC50,"CYP 1A2; 1A2, read-out: CYP inhibition IC50",> 20 µM
same,CYP inhibition,"CYP 1A2; CYP 1A2, concentrations up to 20 μM, human liver microsomes",did not inhibit
same,microsomal CLint,[5],< 7 µL/min/mg
same,ED50,"S. mansoni; adult stage, read-out: S. mansoni ED50, adult",7.1 mg/kg
same,ED50,"S. mansoni; juvenile stage, read-out: S. mansoni ED50, juvenile",16 mg/kg
same,microsomal CLint,[6],< 7 µL/min/mg
same,CLint,[7]; Rat cryopreserved hepatocytes,<2 μL/min/10^6
same,hepatocyte CLint,"[7]; rat cryopreserved hepatocytes, read-out: in vitro CLint",< 2000 µL/min/1e6 cells
same,CYP inhibition,"CYP 3A4; CYP 3A4, concentrations up to 20 μM, human liver microsomes",did not inhibit
same,IC50,"CYP 3A4; read-out: CYP inhibition IC50, 3A4* (tes/mid)",> 20 µM
same,chromatographic logD,[8],2.5
same,fraction unbound,[9],0.32
same,CLint,[10],<2 μL/min/10^6
same,hepatocyte CLint,[10]; read-out: in vitro CLint,< 2000 µL/min/1e6 cells
